± gives the standard deviation of the averaged measurements.
Assays:
IMATINIB = compound: Cc1ccc(NC(=O)c2ccc(CN3CCN(C)CC3)cc2)cc1Nc1nccc(-c2cccnc2)n1 [IMATINIB]; test: surviving fraction relative to DMSO-only wells; higher = less growth inhibition; conditions: exposure time: 5 days
In short: (§1)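 Tumour cell lines were seeded in log phase at 250–500 cells per well into 384-well plates. Starting 24 hours later, inhibitors were present continuously for five days at 0.5, 1, 5, 10, 50, 100, 500 and 1000 nM. Surviving fraction, from CellTiter-Glo luminescence, is normalised to the median of DMSO-only wells. Three screens per line were required, with replicate Pearson r >0.7 and median Z' >0.3 for a line to be kept.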

[1] = compound: C[C@@H]1CN(CC(=O)Nc2ccc3c(c2)Cc2cccc(-c4cc(=O)cc(N5CCOCC5)o4)c2S3)C[C@H](C)O1; test: as above; conditions: exposure time: 5 days
In short: as §1

Row | Test System | surviving fraction (IMATINIB; 0.5 nM) | surviving fraction (IMATINIB; 1 nM) | surviving fraction (IMATINIB; 5 nM) | surviving fraction (IMATINIB; 10 nM) | surviving fraction (IMATINIB; 50 nM) | surviving fraction (IMATINIB; 100 nM) | surviving fraction (IMATINIB; 500 nM) | surviving fraction (IMATINIB; 1000 nM) | surviving fraction ([1]; 0.5 nM) | surviving fraction ([1]; 1 nM) | surviving fraction ([1]; 5 nM) | surviving fraction ([1]; 10 nM) | surviving fraction ([1]; 50 nM) | surviving fraction ([1]; 100 nM) | surviving fraction ([1]; 500 nM) | surviving fraction ([1]; 1000 nM)
1 | CCK81 LARGE INTESTINE | 0.813 ± 0.083 | 0.815 ± 0.09 | 0.81 ± 0.038 | 0.795 ± 0.048 | 0.706 ± 0.049 | 0.843 ± 0.11 | 0.741 ± 0.078 | 0.778 ± 0.047 | – | – | – | – | – | – | – | –
2 | G292 BONE | 1.01 ± 0.037 | 1.038 ± 0.0097 | 1.09 ± 0.024 | 1.05 ± 0.024 | – | 1.04 ± 0.028 | 0.862 ± 0.029 | 0.923 ± 0.065 | 0.9787 ± 0.009 | 1.03 ± 0.026 | 0.995 ± 0.026 | 1 ± 0.046 | 0.994 ± 0.03 | 0.977 ± 0.034 | 0.856 ± 0.053 | 0.764 ± 0.017
3 | HCC38 BREAST | 1.32 ± 0.15 | 1.13 ± 0.13 | 1.39 ± 0.13 | 1.3 ± 0.27 | 1.31 ± 0.15 | 1.46 ± 0.21 | 1.08 ± 0.12 | 1.1 ± 0.029 | 0.973 ± 0.15 | 0.988 ± 0.11 | 1.08 ± 0.19 | 1.02 ± 0.17 | 0.698 ± 0.23 | 0.631 ± 0.086 | 0.418 ± 0.12 | 0.391 ± 0.06
4 | HCC70 BREAST | 1.116 ± 0.0051 | 1.08 ± 0.071 | 1.04 ± 0.04 | 1.1 ± 0.054 | 1.17 ± 0.11 | 1.15 ± 0.043 | – | 1.45 ± 0.69 | 1.03 ± 0.038 | 1.07 ± 0.092 | 1.1 ± 0.1 | 1.14 ± 0.07 | 1.15 ± 0.044 | 1.2 ± 0.037 | 1.1 ± 0.041 | 1.07 ± 0.02
5 | HMLE3 BREAST | 1.08 ± 0.038 | 1.14 ± 0.11 | 1.11 ± 0.08 | 1.21 ± 0.062 | 1.14 ± 0.047 | 1.23 ± 0.13 | 1.16 ± 0.054 | 1.01 ± 0.089 | 1 ± 0.041 | 0.914 ± 0.069 | 0.985 ± 0.082 | 0.954 ± 0.042 | 1 ± 0.058 | 0.949 ± 0.12 | 0.918 ± 0.024 | 0.807 ± 0.047
6 | HMT3552 BREAST | 1.01 ± 0.039 | 0.967 ± 0.041 | 1.04 ± 0.032 | 0.988 ± 0.057 | 1.15 ± 0.061 | 1.17 ± 0.062 | 1.18 ± 0.047 | 1.16 ± 0.076 | 0.943 | 0.938 | 0.979 | 1.01 | 0.942 | 0.855 | 0.824 | 0.739
7 | HS578T BREAST | 1.23 ± 0.27 | 1.01 ± 0.11 | 1.02 ± 0.12 | 1.14 ± 0.27 | 1.21 ± 0.18 | 1.07 ± 0.1 | 1.1 ± 0.16 | 1.2 ± 0.17 | 0.996 ± 0.12 | 0.965 ± 0.14 | 0.861 ± 0.04 | 0.883 ± 0.052 | 0.855 ± 0.13 | 0.814 ± 0.13 | 0.867 ± 0.089 | 0.69 ± 0.042

From the supplement of paper PMC6045584
